# Assay results reported in patent US10787437B2, “Processes for the preparation of pyrazole derivatives useful as modulators of the 5-HT2A serotonin receptor” (Arena Pharmaceuticals, Inc., priority 2008, dated 2020).
# What was measured:
# insomnia patients = experiment: Phase 2 trial, measurements of sleep maintenance versus placebo; type: in vivo, human
# From the text: The data from the APD125 Phase 2 study are consistent with Phase 1 data and support further development of APD125 for the treatment of insomnia patients who have difficulty maintaining sleep.
# normal volunteers = experiment: Afternoon nap model of insomnia in normal volunteers; type: in vivo, human
# From the text: APD125, a potent and selective 5-HT2A serotonin receptor inverse agonist is a member of the genus disclosed in the European Patent EP1558582. […] Sleep onset latency was not decreased by APD125. In the afternoon nap model, APD125 decreased microarousals, the number of sleep stage shifts, and number of awakenings after sleep onset.
# healthy adults = experiment: Phase 1 trials, waking EEG; type: in vivo, human
# diabetic rats = conditions: cited from earlier work
# [1] = test system: DOCA-salt induced hypertension; conditions: rats; cited from earlier work
# heatstroke = conditions: in vivo; cited from earlier work
# JC virus = conditions: cited from earlier work
# 5-HT2A = 5-HT2A (Homo sapiens, UniProt P28223); conditions: cited from earlier work
# [2] = test system: spontaneously hypertensive rats; conditions: cited from earlier work
# glaucoma patients = conditions: cited from earlier work
# thermal induced pain = conditions: rats, intraperitoneal administration; cited from earlier work
# diabetic nephropathy = conditions: 24 months of treatment; cited from earlier work
# lumbar disc herniation = conditions: humans; cited from earlier work
# inflammatory pain = conditions: rats, intrathecal or intraperitoneal administration; cited from earlier work
# Sequence of 5-HT2A (P28223 whole entry, species assumed): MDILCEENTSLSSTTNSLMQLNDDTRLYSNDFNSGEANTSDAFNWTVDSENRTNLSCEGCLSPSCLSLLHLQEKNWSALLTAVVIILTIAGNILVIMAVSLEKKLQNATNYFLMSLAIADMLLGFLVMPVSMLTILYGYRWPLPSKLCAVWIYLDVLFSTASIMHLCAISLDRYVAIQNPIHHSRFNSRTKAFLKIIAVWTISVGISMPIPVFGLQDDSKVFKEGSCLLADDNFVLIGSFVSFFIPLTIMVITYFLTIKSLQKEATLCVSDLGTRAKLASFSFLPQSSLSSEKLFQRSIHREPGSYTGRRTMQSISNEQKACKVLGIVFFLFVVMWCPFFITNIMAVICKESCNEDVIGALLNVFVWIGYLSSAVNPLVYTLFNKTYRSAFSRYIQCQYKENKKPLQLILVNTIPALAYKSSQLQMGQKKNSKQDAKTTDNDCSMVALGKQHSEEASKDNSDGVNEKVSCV
structure (smiles),measurement,setting,value
COc1ccc(NC(=O)Nc2ccc(F)cc2F)cc1-c1c(Br)cnn1C [APD125],next day cognitive effects,insomnia patients; Phase 2,without any limiting next day cognitive effects
same,measurements of sleep maintenance,"insomnia patients; Phase 2, compared to placebo",statistically significant improvements
same,REM sleep,normal volunteers; afternoon nap model,at the expense of REM sleep
same,microarousals,normal volunteers; afternoon nap model,decreased
same,number of awakenings after sleep onset,normal volunteers; afternoon nap model,decreased
same,number of sleep stage shifts,normal volunteers; afternoon nap model,decreased
same,sleep onset latency,normal volunteers; afternoon nap model,not decreased
same,slow wave sleep and associated parameters,normal volunteers; primarily during the early part of sleep,increased slow wave sleep and associated parameters in a dose-dependent manner
same,dose of maximal vigilance-lowering effects on waking EEG,healthy adults,40 to 80 mg
same,effects on waking EEG,healthy adults,vigilance-lowering effects on waking EEG
same,time of peak effects after dosing,healthy adults; after dosing,2 to 4 h
O=CN1CCC(C(=O)NCCN2CCC(=C3c4ccccc4C=Cc4ccccc43)CC2)CC1 [AT-1015],14.9% reduction in saphenous sensory conduction velocity,diabetic rats,completely reversed
same,44.7% reduction in sciatic endoneurial blood flow,diabetic rats,completely reversed
CN1CCN2c3ccccc3Cc3ccccc3C2C1 (stereo not drawn) [Mainserin],DOCA-salt induced hypertension,[1],prevent
O=C(c1ccc(F)cc1)C1CCN(CCn2c(=O)[nH]c3ccccc3c2=O)CC1 [ketanserin],protection during heatstroke,heatstroke,"protect against circulatory shocks, intracranial hypertension, and cerebral ischemia"
same,JC virus infection of human glial cells,JC virus,inhibited
same,inverse agonist activity at 5-HT2A,5-HT2A,have inverse agonist activity
same,blood pressure,[2],stabilize blood pressure
same,IOP,glaucoma patients,significantly lower
Cc1nc2sccn2c(=O)c1CCN1CCC(=C(c2ccc(F)cc2)c2ccc(F)cc2)CC1 [ritanserin],JC virus infection of human glial cells,JC virus,inhibited
same,inverse agonist activity at 5-HT2A,5-HT2A,have inverse agonist activity
same,14.9% reduction in saphenous sensory conduction velocity,diabetic rats,completely reversed
same,44.7% reduction in sciatic endoneurial blood flow,diabetic rats,completely reversed
COc1cccc(CCc2ccccc2OCC(CN(C)C)OC(=O)CCC(=O)O)c1 (stereo not drawn) [sarpogrelate],analgesic effect on thermal induced pain,thermal induced pain,significant analgesic effect
same,IOP,glaucoma patients,significantly lower
same,urinary albumin excretion level,diabetic nephropathy,significantly reduced
same,14.9% reduction in saphenous sensory conduction velocity,diabetic rats,completely reversed
same,44.7% reduction in sciatic endoneurial blood flow,diabetic rats,completely reversed
same,"lower back pain, leg pain and numbness associated with sciatica",lumbar disc herniation,effective treatment
same,analgesic effect on inflammatory pain,inflammatory pain,significant analgesic effect
